Results published in ChEMBL document CHEMBL4184145, “Synthesis and structure-activity relationship of teixobactin analogues via convergent Ser ligation” (2017).
Values after ≈ are worked out from the molar mass of the structure shown.

What was measured:
[1] = system: Staphylococcus aureus; assay: Antibacterial activity against methicillin-susceptible Staphylococcus aureus ATCC 29213 by broth dilution assay; format: functional
[2] = system: Staphylococcus aureus; assay: Antibacterial activity against methicillin-resistant Staphylococcus aureus clinical isolate SA86 by broth dilution assay; format: functional

| Structure (SMILES) | MIC [1] [µg/mL] | MIC [2] [µg/mL] |
| --- | --- | --- |
| CC[C@@H](C)[C@@H](NC(=O)[C@@H](CCC(N)=O)NC(=O)[C@H](CO)NC(=O)[C@@H](NC(=O)[C@@H](Cc1ccccc1)NC)[C@@H](C)CC)C(=O)N[C@H](C(=O)N[C@@H](CO)C(=O)N[C@H]1C(=O)N[C@@H](Cc2ccccc2)C(=O)N[C@@H](CCCN)C(=O)N[C@@H]([C@@H](C)CC)C(=O)O[C@H]1C)[C@@H](C)CC | ≥ 32 | ≥ 32 |
| CC[C@@H](C)[C@@H](NC(=O)[C@@H](CC(N)=O)NC(=O)[C@H](CO)NC(=O)[C@@H](NC(=O)[C@@H](Cc1ccccc1)NC)[C@@H](C)CC)C(=O)N[C@H](C(=O)N[C@@H](CO)C(=O)N[C@H]1C(=O)N[C@@H](C)C(=O)N[C@@H](CCCN)C(=O)N[C@@H]([C@@H](C)CC)C(=O)O[C@H]1C)[C@@H](C)CC | 4 (≈ 3.37 µM) | 4 (≈ 3.37 µM) |
| CC[C@@H](C)[C@@H](NC(=O)[C@@H](CCC(N)=O)NC(=O)[C@H](CCCCN)NC(=O)[C@@H](NC(=O)[C@@H](Cc1ccccc1)NC)[C@@H](C)CC)C(=O)N[C@H](C(=O)N[C@@H](CO)C(=O)N[C@H]1C(=O)N[C@@H](C)C(=O)N[C@@H](CCCN)C(=O)N[C@@H]([C@@H](C)CC)C(=O)O[C@H]1C)[C@@H](C)CC | 4 (≈ 3.22 µM) | 8 (≈ 6.43 µM) |
| CC[C@@H](C)[C@@H](NC(=O)[C@@H](CCC(N)=O)NC(=O)[C@H](CO)NC(=O)[C@@H](NC(=O)[C@@H](Cc1ccccc1)NC)[C@@H](C)CC)C(=O)N[C@H](C(=O)N[C@@H](CO)C(=O)N[C@H]1C(=O)N[C@@H](C)C(=O)N[C@@H](CCCN)C(=O)N[C@@H](CC(C)C)C(=O)O[C@H]1C)[C@@H](C)CC | ≥ 32 | ≥ 32 |
| CC[C@@H](C)[C@@H](NC(=O)[C@@H](CCC(N)=O)NC(=O)[C@H](CO)NC(=O)[C@@H](NC(=O)[C@@H](Cc1ccccc1)NC)[C@@H](C)CC)C(=O)N[C@H](C(=O)N[C@@H](CO)C(=O)N[C@H]1C(=O)N[C@@H](CCCN)C(=O)N[C@@H](CCCN)C(=O)N[C@@H]([C@@H](C)CC)C(=O)O[C@H]1C)[C@@H](C)CC | 8 (≈ 6.42 µM) | 8 (≈ 6.42 µM) |
| CC[C@H](C)[C@H](NC(=O)[C@@H](C)NC(=O)[C@@H](CCC(N)=O)NC(=O)[C@H](CO)NC(=O)[C@@H](NC(=O)[C@@H](Cc1ccccc1)NC)[C@@H](C)CC)C(=O)N[C@@H](CO)C(=O)N[C@H]1C(=O)N[C@@H](C)C(=O)N[C@@H](CCCN)C(=O)N[C@@H]([C@@H](C)CC)C(=O)O[C@H]1C | ≥ 32 | ≥ 32 |
| CC[C@@H](C)[C@@H](NC(=O)[C@H](CCC(N)=O)NC(=O)[C@H](CO)NC(=O)[C@@H](NC(=O)[C@@H](Cc1ccccc1)NC)[C@@H](C)CC)C(=O)N[C@H](C(=O)N[C@@H](CO)C(=O)N[C@H]1C(=O)N[C@@H](C)C(=O)N[C@@H](CCCN)C(=O)N[C@@H]([C@@H](C)CC)C(=O)O[C@H]1C)[C@@H](C)CC | ≥ 32 | ≥ 32 |
| CC[C@@H](C)[C@@H](NC(=O)[C@@H](CCC(N)=O)NC(=O)[C@H](CO)NC(=O)[C@@H](NC(=O)[C@@H](Cc1ccccc1)NC)[C@@H](C)CC)C(=O)N[C@@H](Cc1ccccc1)C(=O)N[C@@H](CO)C(=O)N[C@H]1C(=O)N[C@@H](C)C(=O)N[C@@H](CCCN)C(=O)N[C@@H]([C@@H](C)CC)C(=O)O[C@H]1C | ≥ 32 | ≥ 32 |
| CC[C@@H](C)[C@@H](NC(=O)[C@@H](CCC(N)=O)NC(=O)[C@H](C)NC(=O)[C@@H](NC(=O)[C@@H](Cc1ccccc1)NC)[C@@H](C)CC)C(=O)N[C@H](C(=O)N[C@@H](CO)C(=O)N[C@H]1C(=O)N[C@@H](C)C(=O)N[C@@H](CCCN)C(=O)N[C@@H]([C@@H](C)CC)C(=O)O[C@H]1C)[C@@H](C)CC | 4 (≈ 3.37 µM) | 4 (≈ 3.37 µM) |
| CC[C@@H](C)[C@@H](NC(=O)[C@@H](CCC(N)=O)NC(=O)[C@H](CO)NC(=O)[C@@H](NC(=O)[C@@H](Cc1ccccc1)NC)[C@@H](C)CC)C(=O)N[C@H](C(=O)N[C@@H](CO)C(=O)N[C@H]1C(=O)N[C@@H](C)C(=O)N[C@@H](CCCN)C(=O)N[C@@H](C(C)C)C(=O)O[C@H]1C)[C@@H](C)CC | 8 (≈ 6.73 µM) | 8 (≈ 6.73 µM) |
| CC[C@@H](C)[C@@H](NC(=O)[C@@H](CCC(N)=O)NC(=O)[C@H](CO)NC(=O)[C@@H](NC(=O)[C@@H](Cc1ccccc1)NC)[C@@H](C)CC)C(=O)N[C@H](C(=O)N[C@@H](CO)C(=O)N[C@H]1C(=O)NCC(=O)N[C@@H](CCCN)C(=O)N[C@@H]([C@@H](C)CC)C(=O)O[C@H]1C)[C@@H](C)CC | ≥ 32 | ≥ 32 |
| CC[C@H](C)[C@H](NC(=O)[C@@H](Cc1ccccc1)NC)C(=O)N[C@@H](CO)C(=O)N[C@H](CCC(N)=O)C(=O)N[C@@H](C(=O)N[C@H](C(=O)N[C@@H](CO)C(=O)N[C@H]1C(=O)N[C@@H](C)C(=O)N[C@@H](CCCN)C(=O)N[C@@H]([C@@H](C)CC)C(=O)O[C@H]1C)[C@@H](C)CC)C(C)C | 8 to 16 (≈ 6.73 to 13.5 µM) | 16 (≈ 13.5 µM) |
| CC[C@@H](C)[C@@H](NC(=O)[C@@H](CCC(N)=O)NC(=O)[C@H](CO)NC(=O)[C@@H](NC(=O)[C@@H](Cc1ccccc1)NC)[C@@H](C)CC)C(=O)N[C@@H](CC(C)C)C(=O)N[C@@H](CO)C(=O)N[C@H]1C(=O)N[C@@H](C)C(=O)N[C@@H](CCCN)C(=O)N[C@@H]([C@@H](C)CC)C(=O)O[C@H]1C | ≥ 32 | ≥ 32 |
| CC[C@@H](C)[C@@H](NC(=O)[C@@H](CCC(N)=O)NC(=O)[C@H](CO)NC(=O)[C@@H](NC(=O)[C@@H](Cc1ccccc1)NC)[C@@H](C)CC)C(=O)N[C@@H](C)C(=O)N[C@@H](CO)C(=O)N[C@H]1C(=O)N[C@@H](C)C(=O)N[C@@H](CCCN)C(=O)N[C@@H]([C@@H](C)CC)C(=O)O[C@H]1C | ≥ 32 | ≥ 32 |
| CC[C@@H](C)[C@@H](NC(=O)[C@@H](CCC(N)=O)NC(=O)[C@H](CO)NC(=O)[C@@H](NC(=O)[C@@H](Cc1ccccc1)NC)[C@@H](C)CC)C(=O)N[C@H](C(=O)N[C@@H](CO)C(=O)N[C@H]1C(=O)N[C@H](C)C(=O)N[C@@H](CCCN)C(=O)N[C@@H]([C@@H](C)CC)C(=O)O[C@H]1C)[C@@H](C)CC | ≥ 32 | ≥ 32 |
| CC[C@@H](C)[C@@H](NC(=O)[C@@H](CCC(N)=O)NC(=O)[C@H](CC(N)=O)NC(=O)[C@@H](NC(=O)[C@@H](Cc1ccccc1)NC)[C@@H](C)CC)C(=O)N[C@H](C(=O)N[C@@H](CO)C(=O)N[C@H]1C(=O)N[C@@H](C)C(=O)N[C@@H](CCCN)C(=O)N[C@@H]([C@@H](C)CC)C(=O)O[C@H]1C)[C@@H](C)CC | 16 (≈ 13 µM) | ≥ 32 |
| CC[C@@H](C)[C@@H](NC(=O)[C@@H](CCC(N)=O)NC(=O)[C@H](CO)NC(=O)[C@@H](NC(=O)[C@@H](Cc1ccccc1)NC)[C@@H](C)CC)C(=O)N[C@H](C(=O)N[C@@H](CO)C(=O)N[C@H]1C(=O)N[C@@H](C)C(=O)N[C@@H](CCCN)C(=O)N[C@@H]([C@@H](C)CC)C(=O)O[C@H]1C)C(C)C | ≥ 32 | ≥ 32 |
| CC[C@@H](C)[C@@H](NC(=O)[C@@H](CCC(N)=O)NC(=O)[C@H](CO)NC(=O)[C@H](Cc1ccccc1)NC(=O)[C@@H](Cc1ccccc1)NC)C(=O)N[C@H](C(=O)N[C@@H](CO)C(=O)N[C@H]1C(=O)N[C@@H](C)C(=O)N[C@@H](CCCN)C(=O)N[C@@H]([C@@H](C)CC)C(=O)O[C@H]1C)[C@@H](C)CC | ≥ 32 | ≥ 32 |
